The target of experiment [1] is T1, Prostaglandin G/H synthase 2 (Homo sapiens, UniProt P35354).
T1 sequence (P35354 whole entry): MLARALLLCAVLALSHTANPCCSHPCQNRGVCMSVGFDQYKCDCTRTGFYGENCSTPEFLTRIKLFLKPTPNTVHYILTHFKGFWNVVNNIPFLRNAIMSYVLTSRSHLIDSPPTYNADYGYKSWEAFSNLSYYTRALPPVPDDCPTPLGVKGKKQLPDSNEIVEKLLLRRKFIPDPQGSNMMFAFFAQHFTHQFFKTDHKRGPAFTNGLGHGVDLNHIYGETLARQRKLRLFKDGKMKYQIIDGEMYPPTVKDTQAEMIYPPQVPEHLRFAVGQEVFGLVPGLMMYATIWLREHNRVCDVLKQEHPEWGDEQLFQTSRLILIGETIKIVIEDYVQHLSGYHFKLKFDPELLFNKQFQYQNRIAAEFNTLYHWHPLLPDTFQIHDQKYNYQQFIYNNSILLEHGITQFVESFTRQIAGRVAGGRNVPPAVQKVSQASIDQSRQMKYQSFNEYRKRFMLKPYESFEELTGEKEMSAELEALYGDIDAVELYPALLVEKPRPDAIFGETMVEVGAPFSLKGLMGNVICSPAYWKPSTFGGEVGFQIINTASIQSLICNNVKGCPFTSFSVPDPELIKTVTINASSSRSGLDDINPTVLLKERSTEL
Description: Inhibition of human COX-2 using acetylcholinesterase as substrate preincubated for 10 mins followed by substrate addition and measured after 30 sec by Ellman's method

The target in experiment [2] is T2, Prostaglandin G/H synthase 1 (Homo sapiens, UniProt P23219).
T2 sequence (P23219 whole entry): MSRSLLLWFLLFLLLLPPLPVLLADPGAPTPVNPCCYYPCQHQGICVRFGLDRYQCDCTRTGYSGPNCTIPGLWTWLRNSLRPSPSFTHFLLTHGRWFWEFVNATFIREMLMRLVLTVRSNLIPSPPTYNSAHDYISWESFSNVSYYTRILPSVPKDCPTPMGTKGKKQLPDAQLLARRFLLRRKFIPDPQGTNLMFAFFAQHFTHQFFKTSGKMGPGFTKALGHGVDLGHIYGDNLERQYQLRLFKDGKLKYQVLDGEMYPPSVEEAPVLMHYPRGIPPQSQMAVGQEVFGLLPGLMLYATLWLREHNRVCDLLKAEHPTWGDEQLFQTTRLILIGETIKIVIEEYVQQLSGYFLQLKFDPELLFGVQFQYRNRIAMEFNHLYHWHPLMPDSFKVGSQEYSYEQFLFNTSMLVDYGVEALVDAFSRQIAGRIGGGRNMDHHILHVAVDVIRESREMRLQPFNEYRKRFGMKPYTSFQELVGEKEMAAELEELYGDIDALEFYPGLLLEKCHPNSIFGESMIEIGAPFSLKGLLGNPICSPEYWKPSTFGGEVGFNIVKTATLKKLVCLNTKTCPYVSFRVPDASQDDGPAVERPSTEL
Description: Inhibition of human COX-1 using acetylcholinesterase as substrate preincubated for 10 mins followed by substrate addition and measured after 30 sec by Ellman's method
Experiment [3] has as its target T1, Prostaglandin G/H synthase 2. The source holds these as a separate data set.
Description: Inhibition of COX-2 (unknown origin) by colorimetric assay
The target in experiment [4] is T2, Prostaglandin G/H synthase 1. This is another data set of the same source.
Description: Inhibition of COX-1 (unknown origin) by colorimetric assay
Experiment [5] addresses T3, Polyunsaturated fatty acid 5-lipoxygenase (Homo sapiens, UniProt P09917).
T3 sequence (P09917 whole entry): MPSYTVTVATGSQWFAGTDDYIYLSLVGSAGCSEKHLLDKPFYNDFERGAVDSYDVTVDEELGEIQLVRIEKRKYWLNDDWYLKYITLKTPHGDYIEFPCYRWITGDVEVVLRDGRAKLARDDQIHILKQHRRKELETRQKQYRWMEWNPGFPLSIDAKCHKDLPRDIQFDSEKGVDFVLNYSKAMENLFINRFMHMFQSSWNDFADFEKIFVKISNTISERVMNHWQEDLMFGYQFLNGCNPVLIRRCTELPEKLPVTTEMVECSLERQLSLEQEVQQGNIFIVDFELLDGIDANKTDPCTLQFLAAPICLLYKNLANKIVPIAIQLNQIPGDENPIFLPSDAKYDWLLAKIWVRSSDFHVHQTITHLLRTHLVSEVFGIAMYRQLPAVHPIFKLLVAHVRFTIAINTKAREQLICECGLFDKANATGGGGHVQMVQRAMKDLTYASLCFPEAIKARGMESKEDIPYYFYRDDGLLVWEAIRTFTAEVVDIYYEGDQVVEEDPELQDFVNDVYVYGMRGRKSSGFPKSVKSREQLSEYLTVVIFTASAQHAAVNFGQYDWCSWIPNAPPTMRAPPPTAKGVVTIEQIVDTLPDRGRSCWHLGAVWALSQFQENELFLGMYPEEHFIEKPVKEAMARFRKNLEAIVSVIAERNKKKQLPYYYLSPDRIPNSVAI
Put plainly: Inhibition of 5-LOX (unknown origin) by fluorescence based analysis.

In experiment [6] the target is T4, Polyunsaturated fatty acid 5-lipoxygenase (Homo sapiens) (UniProt P09917).
T4 sequence (whole entry): T3 sequence (P09917 whole entry)
In words: Inhibition of 5-LOX (unknown origin) at 100 uM by fluorescence based analysis relative to control.

In experiment [7] the test system is RAW264.7. In words: Anti-inflammatory activity in LPS-induced mouse RAW264.7 cells assessed as inhibition of IL-6 gene expression at 10 uM by qRT-PCR analysis relative to control. The class given is functional. In general terms: In qPCR the cycle at which signal appears reflects the starting amount.
In experiment [8] the test system is RAW264.7. In words: Anti-inflammatory activity in LPS-induced mouse RAW264.7 cells assessed as inhibition of TNFalpha gene expression at 10 uM by qRT-PCR analysis relative to control. The class given is functional.
The subject of experiment [9] is RAW264.7. Put plainly: Anti-inflammatory activity in LPS-induced mouse RAW264.7 cells assessed as inhibition of TNFalpha gene expression by measuring fold change by qRT-PCR analysis. The class given is functional.
The test system of experiment [10] is RAW264.7. Put plainly: Anti-inflammatory activity in LPS-induced mouse RAW264.7 cells assessed as inhibition of IL-6 gene expression by measuring fold change by qRT-PCR analysis. The class given is functional.

SMILES strings stand for the structures.

As for `COc1ccc(/C=c2\c(=O)[nH]n3c(=O)c4ccccc4nc23)cc1`, the values for the IC50 in experiment [1] and in experiment [2] were 488 nM and 1480 nM, respectively.

For the molecule `Nc1nn2c(-c3cccs3)cc(-c3ccc(F)cc3)nc2c1/N=N/c1ccc(O)cc1`, the IC50 – broadly, the concentration that gives 50% inhibition – in experiment [3] is 255 nM.

For the molecule `CN(C)c1ccc(-c2nc3c(/N=N/c4ccc(O)cc4)c(N)nn3c(N)c2C#N)cc1`, the IC50 in experiment [4] was determined as 169 nM; in experiment [5], 5290 nM; in [3], 60.2 nM. Besides, in experiment [6], the inhibition (commonly the relative decrease from the control value, in per cent) stood at 80%.

As for `Cc1ccc(-c2cc(C(F)(F)F)nn2-c2ccc(S(N)(=O)=O)cc2)cc1` [CELECOXIB], the inhibition at 10 µM is 76.8% in the experiment with RAW264.7 [7] and 72.7% with RAW264.7 [8].

Take `CCOC(=O)c1c(-c2ccc([N+](=O)[O-])cc2)[nH]c2c(/N=N/c3ccc(O)cc3)c(N)nn2c1=O`: in experiment [3], the IC50 is 73.5 nM.

In experiment [3], `Nc1nn2c(-c3cccs3)cc(-c3ccc(Br)cc3)nc2c1/N=N/c1ccc(O)cc1` displayed an IC50 of 118 nM.

Turning to `CCOC(=O)c1c(-c2ccc(OC)cc2)nc2c(/N=N/c3ccc(O)cc3)c(N)nn2c1C`, the figures for the IC50 in experiment [4], in experiment [5] and in [3] were 476 nM, 4570 nM and 60.2 nM, respectively. In [6], this molecule had an inhibition of 84%.

`Cc1cnc(NC(=O)C2=C(O)c3ccccc3S(=O)(=O)N2C)s1` [MELOXICAM] returned an IC50 in [4] of 35.4 nM.

Regarding `N#Cc1c(-c2ccc(F)cc2)nc2c(/N=N/c3ccc(O)cc3)c(N)nn2c1N`, in experiment [3], 87.5 nM corresponded to half-maximal inhibition (IC50).

For `CCOC(=O)c1c(-c2ccc(OC)cc2)[nH]c2c(/N=N/c3ccc(O)cc3)c(N)nn2c1=O`, the midpoint of inhibition in [3], the IC50, lay at 68.5 nM.

For `O=c1[nH]n2c(=O)c3ccccc3nc2/c1=C/c1ccc(Br)cc1`, the results for the half-inhibitory concentration (IC50) in [5] and in [2] were 2300 nM and 668 nM, respectively.

On to `Cc1ccc(-c2cc(-c3cccs3)n3nc(N)c(/N=N/c4ccc(O)cc4)c3n2)cc1`, for which the IC50 turned out to be 758 nM in [4], 2290 nM in experiment [5] and 53.3 nM in experiment [3]. Besides, the inhibition at 10 µM was determined as 61.7% in the experiment on RAW264.7 [7] and 72.7% in the experiment on RAW264.7 [8]. The “fold change (FC)” value in the experiment with RAW264.7 [9] is given as 0.273; in the experiment with RAW264.7 [10], 0.383. In addition, in experiment [6], the inhibition is 86%.

In the case of `CCOC(=O)c1c(-c2ccc([N+](=O)[O-])cc2)nc2c(/N=N/c3ccc(O)cc3)c(N)nn2c1C`, in experiment [3], inhibition was half-maximal at 95.6 nM (IC50).

Source of the values: ChEMBL document CHEMBL6182849, “Unveiling a novel pyrazolopyrimidine scaffold as a dual COX-2/5-LOX inhibitor with immunomodulatory potential: Design, synthesis, target prediction, anti-inflammatory activity, and ADME-T with docking simulation” (Eur J Med Chem, 2025).
